Assay [1] concerns 20S and/or 26S proteasome. The assay is described as follows: FACS-based proteasome activity assay with Me4BodipyFL-Ahx3Leu3VS activity probe in MelJuSo wild type cells. Format: cell-based, human. To be noted: 5 μM, 16 hours, triplicate. On the procedure:
MelJuSo cells are washed, trypsinized and resuspended in medium containing FBS and antibiotics. After counting the concentration is adjusted to 200,000 cells per mL. Using the Wellmate microplate dispenser fitted with small bore nozzle tubing, 50 μL of cell suspension is transferred to each well of a black 384 wells plate (10,000 cells/well).
A brief spin down will prevent any liquid from being lost when the plate cover is removed. Using a Hamilton liquid handling workstation the compounds are diluted to appropriate concentrations. To “wash” the cells prior to exposure 30 μL of medium is removed from each well and is replaced with fresh medium. Then the compounds are added to the medium of the cells (final concentration 5 μM).
Using the Wellmate microplate dispenser fitted with small bore nozzle tubing, […] of probe suspension is transferred to each well resulting in a final probe concentration of 200 nM. Plates are left to incubate for two hours. Then the medium is removed and the cells are washed one time with PBS. The PBS is removed and 10 μL of trypsin is added to each well. The plates are left on a shaker for 2 minutes, placed in an incubator for 5 minutes and put on a shaker again for 2 minutes. 40 μL of PBS containing 2% FBS is added per well and the plates are put on the shaker for 2 minutes. Finally, 20 μL of PBS containing 4% formaldehyde is added and the plates are left to shake for at least 15 minutes. Plates are left on a shaker at 4° C. until they can be measured.
The FITS unit is installed on the FACS and everything is turned on. To remove air from the system and ascertain that everything works fine the system is primed twice. One by one the plates are brought down and measured. In between plates a “daily clean” cycle is performed to prevent the system from becoming clogged. After the last plate the system should be cleaned again.
Analysis is always performed per plate. Throughout the analysis the following parameters are considered: • Forward Scatter (FSC): size of the cell • Side Scatter (SSC): granularity of the cell • Number of events (#) • Probe signal (FL-1): proteasome activity • FL-2 and FL-3: signal in other channels
All DMSO samples are checked and aberrant wells (low # events, high SSC, no signal) are excluded. The average of the FL-1 from all remaining DMSO samples is used to calculate the “ratio vs. DMSO” and the FL-1 log 2 ratio of the experimental samples. This will result in DMSO samples having a FL-1 log 2 value around zero. Compounds are considered “activators” or “hits” if the FL-1 log 2 ratio is >1, and inhibitors if the FL-1 log 2 ratio is […].
Cells were washed once with phosphate buffered saline (PBS, 1 GIBCO tablet in 500 mL MilliQ). Fresh medium containing the compound at the indicated concentration was added. After the incubation time 200 nM of Me4BodipyFL-Ahx3Leu3VS activity probe was added to the cells and after two hours of incubation cells were harvested for subsequent analysis by FACS or post-lysis fluorescence detection.
Celts were washed once with PBS, trypsin was added and the plate was placed at 37° C. for 5 minutes to allow the cells to detach. When detached the cells were resuspended in PBS supplemented with 2% FBS. Cells were fixed with formaldehyde (final concentration 1% in PBS). All samples were measured using a FACSCalibur flow cytometer (BD Biosciences). […] The complete workflow used for the compound screens is described above in more detail.
The compound libraries mentioned above are screened using a FACS-based activity assay. The proteasome activity probe Me4BodipyFL-Ahx3Leu3VS activity probe is used to fluorescently label the proteasome. This probe binds irreversibly to the catalytic domains of the 20S CP. When proteasome activity is increased, increased probe binding results in an increase in fluorescent signal compared to untreated cells.

Assay [2] deals with proteasome. The note with it: literature overview; cited from earlier work.
For assay [3], the system named is proteasome. To be noted: literature overview; cited from earlier work. The source holds these as a separate data set.

As for `Cc1cc(C(=O)CN2CCCC2)c(C)n1-c1ccc(F)cc1` [USP14 inhibitor, IU1], the “FL-1 log 2 score compared to the compounds identified in the screen” value in assay [1] is reported as “scores relatively low”. Also, the “Results: purified proteasome/lysate” value with proteasome [2] is reported as “Increases all 3 proteasome”. Further, the “Results: live cells” value with proteasome [3] was “Increases all 3”.

The values are drawn from patent US20140163075A1, “MODULATION OF THE UBIQUITIN-PROTEASOME SYSTEM (UPS)” (NETHERLAND CANCER INSTITUTE, priority 2011, published 2014).
